Measurements: US8088761B2, “Enzyme inhibitors” (Cancer Research Technology Limited, priority 2005, dated 2012)

Tests used:
HCT116 cells = experiment: Cell viability assay (MTT) in HCT116 cell line; assay type: cell-based; conditions: Homo sapiens, HCT-116, 72 hrs, IC50 range, read-out: HCT116 cell growth inhibition
Method in brief: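 MTT read-out (4 hrs, 37 °C, DMSO extraction) following 72 hrs of treatment with 0-50 μM Aurora inhibitor. HCT116 cells were plated a day earlier and tested in triplicate; IC50 derived from the curve.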

Aurora-C [1] = molecular target: T1, Aurora-C (Homo sapiens, UniProt Q9UQB9); experiment: Filterplate assay for Aurora-C inhibitors; assay type: biochemical; conditions: read-out: IC50 range in respect of Aurora-C
T1 sequence (Q9UQB9 1-309): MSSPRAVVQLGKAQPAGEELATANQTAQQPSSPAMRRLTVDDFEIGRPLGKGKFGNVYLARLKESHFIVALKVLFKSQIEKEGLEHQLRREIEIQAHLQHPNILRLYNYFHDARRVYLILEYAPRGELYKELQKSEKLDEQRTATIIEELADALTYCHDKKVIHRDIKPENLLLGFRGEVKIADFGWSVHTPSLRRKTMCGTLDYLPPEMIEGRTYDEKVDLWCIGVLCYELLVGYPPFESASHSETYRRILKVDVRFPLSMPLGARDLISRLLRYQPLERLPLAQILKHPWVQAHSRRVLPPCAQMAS
Method: (§1) 40 μl master mix of kinase buffer (50 mM Tris pH 7.5, 10 mM NaCl, 2.5 mM MgCL2, 1 mM DTT, 20 μM ATP, 0.025 μCi/μl ^33P-ATP, and 100 μg/ml MBP was added to a 96-well plate followed by addition of 250 ng of Aurora-A enzyme per well. The plate was shaken for approximately 2 min on a flat-bed plate shaker (Wellmix, Denley, UK) and incubated for 2 hours at room temperature. The reaction was stopped by the addition of 30 μl of 2% orthophosphoric acid. The reaction mixture was then transferred and filtered on the 96-well Multi-Screening Filter Plate (MATAH0P00, MILLIPORE), pre-treated with 50 μl per well of 0.5% orthophosphoric acid. The plate was washed twice with 200 μl of 0.5% orthophosphoric acid and vacuum-dried. 25 μl of scintillant (Microscint™20, PerkinElmer) per well was added and the plate was shaken for 10 min. Finally, the plate was re-sealed with TopSealA and the signal from the filter-bound component was read on TopCount-NXT™ (PerkinElmer Life Sciences UK Ltd., Hounslow, UK).
(§2) Filterplate Assay for Identification and Evaluation of Aurora-B and Aurora-C Inhibitors
(§3) For the determination of the inhibitory activity against Aurora-B or Aurora-C, the same conditions were followed in the assay using Aurora-B or Aurora-C enzymes.

Aurora-B [2] = molecular target: T2, Aurora-B (Homo sapiens, UniProt Q96GD4); experiment: Filterplate assay for Aurora-B inhibitors; assay type: biochemical; conditions: read-out: IC50 range in respect of Aurora-B
Method: as §1, §2, §3

Aurora-A [3] = molecular target: T3, Aurora-A (Homo sapiens, UniProt O14965); experiment: Flashplate Aurora A enzyme inhibition assay; assay type: biochemical; conditions: Flashplate assay; IC50 range; read-out: Aurora-A inhibition
T3 sequence (O14965 1-403): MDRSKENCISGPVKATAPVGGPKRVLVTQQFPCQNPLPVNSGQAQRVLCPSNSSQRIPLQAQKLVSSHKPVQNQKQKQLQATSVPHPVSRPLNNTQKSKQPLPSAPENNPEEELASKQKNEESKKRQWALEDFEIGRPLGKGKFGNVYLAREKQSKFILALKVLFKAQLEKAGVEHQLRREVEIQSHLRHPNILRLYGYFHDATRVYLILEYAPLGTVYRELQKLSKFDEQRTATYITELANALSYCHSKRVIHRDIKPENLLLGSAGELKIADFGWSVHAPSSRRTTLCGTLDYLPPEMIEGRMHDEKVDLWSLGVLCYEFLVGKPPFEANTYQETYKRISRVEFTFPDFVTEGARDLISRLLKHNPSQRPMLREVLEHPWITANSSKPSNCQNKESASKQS
Method in brief: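 This is a radiometric Flashplate format: plates were precoated with DTT, and compound (in 2% DMSO) was mixed with kinase buffer (pH 7.5 Tris, MgCl2, NaCl) containing 1 mM MBP, 20 μM ATP and ^33P-ATP. The reaction was started with 250 ng Aurora-A per well and incubated 2 h at RT. It was then stopped by 10 mM sodium pyrophosphate washing, and plates were scintillation-counted.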

Aurora-C [4] = molecular target: T1, Aurora-C; experiment: Flashplate assay for Aurora-C inhibitors; assay type: biochemical; conditions: read-out: IC50 against Aurora-C
Method: (§4) On this assay 384-well Basic Flashplate® (SMP400E, PerkinElmer) as solid assay platform was used. The plates were coated overnight at 4° C. with […] at 100 μg/ml in PBS buffer and used after being washed twice with PBS. 5 μl of compound in 2% DMSO was added to each well followed by 15 μl master mix of kinase buffer (50 mM Tris pH 7.5, 10 mM NaCl, 2.5 mM MgCl2, 1 mM […], 20 μM ATP, and 0.025 μCi/μl ^33P-ATP). Finally, 250 ng per well of Aurora-A enzyme was added. The plate was shaken for approximately 2 min on a flat-bed plate shaker (Wellmix, Denley, UK) and incubated for 2 hours at room temperature. The reaction was stopped by washing the plate twice on a 16-pin wash (ELX50 BioTek Instruments Ltd., Northstar, Bedford, UK) with 10 mM sodium pyrophosphate. The plate was then read on a TopCount-NX™ (PerkinElmer Life Sciences UK Ltd., Hounslow, UK).
(§5) Flashplate® Assay for Identification and Evaluation of Aurora-B and Aurora-C Inhibitors
as §3

Aurora-A [5] = molecular target: T3, Aurora-A; experiment: Filterplate assay for Aurora-A inhibitors; assay type: biochemical; conditions: read-out: IC50 against Aurora-A
Method: Filterplate Assay for Identification and Evaluation of Aurora-A Inhibitors
as §1

Aurora-B [6] = molecular target: T2, Aurora-B; experiment: Flashplate assay for Aurora-B inhibitors; assay type: biochemical; conditions: read-out: IC50 against Aurora-B
Method: as §4, §5, §3

T2 sequence (Q96GD4 whole entry): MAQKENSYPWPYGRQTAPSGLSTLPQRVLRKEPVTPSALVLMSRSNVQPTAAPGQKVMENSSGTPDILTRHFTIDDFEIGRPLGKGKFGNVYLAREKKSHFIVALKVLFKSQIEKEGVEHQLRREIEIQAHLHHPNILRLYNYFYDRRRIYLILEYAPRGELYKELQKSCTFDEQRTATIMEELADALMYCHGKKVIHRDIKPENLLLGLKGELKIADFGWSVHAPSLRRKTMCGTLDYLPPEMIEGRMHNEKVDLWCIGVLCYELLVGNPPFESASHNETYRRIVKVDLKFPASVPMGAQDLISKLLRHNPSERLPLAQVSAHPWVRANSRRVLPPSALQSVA

| IC50 (HCT116 cells) | IC50 (Aurora-C [1]) | IC50 (Aurora-B [2]) | IC50 (Aurora-A [3]) | IC50 (Aurora-C [4]) | IC50 (Aurora-A [5]) | IC50 (Aurora-B [6]) | Compound |
| --- | --- | --- | --- | --- | --- | --- | --- |
| < 500 nM | < 500 nM | 500 to 2000 nM | < 500 nM | – | – | – | Brc1cnc2[nH]c(-c3ccc(CN4CCNCC4)cc3)nc2c1N1CCN(Cc2cccnc2)CC1 [Example 106, 6-Bromo-2-(4-(piperazin-1-ylmethyl)phenyl)-7-(4-(pyridin-3-ylmethyl)piperazin-1-yl)-3H-imidazo[4,5-b]pyridine] |
| < 500 nM | – | – | < 500 nM | 362 nM | 80 nM | 110 nM | CN(C)c1ccc(-c2nc3c(N4CCN(CC(=O)Nc5nccs5)CC4)c(Cl)cnc3[nH]2)cc1 [Example 1, 2-{4-[6-Chloro-2-(4-dimethylamino-phenyl)-3H-imidazo[4,5-b]pyridin-7-yl]-piperazin-1-yl}-N-thiazol-2-yl-acetamide] |
| < 500 nM | < 500 nM | < 500 nM | < 500 nM | – | – | – | Brc1cnc2[nH]c(-c3ccc(CN4CCOCC4)cc3)nc2c1N1CCN(Cc2cncnc2)CC1 [Example 122, 4-(4-(6-Bromo-7-(4-(pyrimidin-5-ylmethyl)piperazin-1-yl)-3H-imidazo[4,5-b]pyridin-2-yl)benzyl)morpholine] |
| < 500 nM | < 500 nM | < 500 nM | < 500 nM | – | – | – | Cc1cc(CN2CCN(c3c(Br)cnc4[nH]c(-c5ccc(Cn6cccn6)cc5)nc34)CC2)no1 [Example 77, 6-Bromo-7-[4-(5-methyl-isoxazol-3-ylmethyl)-piperazin-1-yl]-2-(4-pyrazol-1-ylmethyl-phenyl)-3H-imidazo[4,5-b]pyridine] |
| < 500 nM | < 500 nM | < 500 nM | < 500 nM | – | – | – | Cc1cc(CN2CCN(c3c(Br)cnc4[nH]c(-c5ccc(CN6CCOCC6)cc5)nc34)CC2)no1 [Example 75, 6-Bromo-7-[4-(5-methyl-isoxazol-3-ylmethyl)-piperazin-1-yl]-2-(4-morpholin-4-ylmethyl-phenyl)-3H-imidazo[4,5-b]pyridine] |
| < 500 nM | < 500 nM | 500 to 2000 nM | < 500 nM | – | – | – | Brc1cnc2[nH]c(-c3ccc(CN4CCOCC4)cc3)nc2c1N1CCN(Cc2cccnc2)CC1 [Example 65, 6-Bromo-2-(4-morpholin-4-ylmethyl-phenyl)-7-(4-pyridin-3-ylmethyl-piperazin-1-yl)-3H-imidazo[4,5-b]pyridine] |
| < 500 nM | < 500 nM | 500 to 2000 nM | < 500 nM | – | – | – | Cc1nc(CN2CCN(c3c(Br)cnc4[nH]c(-c5ccc(Cn6cccn6)cc5)nc34)CC2)cs1 [Example 162, 4-((4-(2-(4-((1H-Pyrazol-1-yl)methyl)phenyl)-6-bromo-3H-imidazo[4,5-b]pyridin-7-yl)piperazin-1-yl)methyl)-2-methylthiazole] |
| 2000 to 50000 nM | – | – | 500 to 2000 nM | – | – | – | NC(=O)C1CC1c1nc2c(N3CCN(CC(=O)Nc4nccs4)CC3)c(Br)cnc2[nH]1 (stereo not drawn) [Example 46, 2-(6-Bromo-7-(4-(2-oxo-2-(thiazol-2-ylamino)ethyl)piperazin-1-yl)-3H-imidazo[4,5-b]pyridin-2-yl)cyclopropanecarboxamide] |
| 500 to 2000 nM | – | – | < 500 nM | – | – | – | O=C(CN1CCN(c2c(Br)cnc3[nH]c(-c4cccnc4)nc23)CC1)Nc1nccs1 [Example 44, 2-(4-(6-Bromo-2-(pyridin-3-yl)-3H-imidazo[4,5-b]pyridin-7-yl)piperazin-1-yl)-N-(thiazol-2-yl)acetamide] |
| 500 to 2000 nM | – | – | < 500 nM | – | – | – | CN1CCN(Cc2ccc(-c3nc4c(N5CCN(Cc6cccnc6)CC5)c(Br)cnc4[nH]3)cc2)CC1 [Example 96, 6-Bromo-2-(4-((4-methylpiperazin-1-yl)methyl)phenyl)-7-(4-(pyridin-3-ylmethyl)piperazin-1-yl)-3H-imidazo[4,5-b]pyridine] |
| < 500 nM | – | – | < 500 nM | – | – | – | COc1ccc(CN2CCN(c3c(Br)cnc4[nH]c(-c5ccc(N6CCOCC6)cc5)nc34)CC2)cn1 [Example 118, 4-(4-(6-Bromo-7-(4-((6-methoxypyridin-3-yl)methyl)piperazin-1-yl)-3H-imidazo[4,5-b]pyridin-2-yl)phenyl)morpholine] |

| Compound | IC50 (HCT116 cells) | IC50 (Aurora-C [1]) | IC50 (Aurora-B [2]) | IC50 (Aurora-A [3]) | IC50 (Aurora-C [4]) | IC50 (Aurora-A [5]) | IC50 (Aurora-B [6]) |
| --- | --- | --- | --- | --- | --- | --- | --- |
| O=C(CN1CCN(c2c(Br)cnc3[nH]cnc23)CC1)Nc1nccs1 [Example 10, 2-[4-(6-Bromo-3H-imidazo[4,5-b]pyridin-7-yl)-piperazin-1-yl]-N-thiazol-2-yl-acetamide] | 2000 to 50000 nM | – | – | 500 to 2000 nM | – | – | – |
| CC(c1ccccc1)N1CCN(c2c(Br)cnc3[nH]c(-c4ccc(CN5CCOCC5)cc4)nc23)CC1 (stereo not drawn) [Example 70, 6-Bromo-2-(4-morpholin-4-ylmethyl-phenyl)-7-[4-(1-phenyl-ethyl)-piperazin-1-yl]-3H-imidazo[4,5-b]pyridine] | 500 to 2000 nM | – | – | < 500 nM | – | – | – |
| COc1ccc(-c2nc3c(N4CCN(CC(C)C)CC4)c(Cl)cnc3[nH]2)cc1 [Example 36, 6-Chloro-7-(4-isobutylpiperazin-1-yl)-2-(4-methoxyphenyl)-3H-imidazo[4,5-b]pyridine] | < 500 nM | – | – | < 500 nM | – | – | – |
| COc1ccc(-c2nc3c(N4CCN(Cc5cc(C)on5)CC4)c(Br)cnc3[nH]2)cc1 [Example 74, 6-Bromo-2-(4-methoxy-phenyl)-7-[4-(5-methyl-isoxazol-3-ylmethyl)-piperazin-1-yl]-3H-imidazo[4,5-b]pyridine] | < 500 nM | – | – | < 500 nM | – | – | – |
| Cn1ccnc1CN1CCN(c2c(Br)cnc3[nH]c(-c4ccc(CN5CCOCC5)cc4)nc23)CC1 [Example 166, 4-(4-(6-Bromo-7-(4-((1-methyl-1H-imidazol-2-yl)methyl)piperazin-1-yl)-3H-imidazo[4,5-b]pyridin-2-yl)benzyl)morpholine] | 500 to 2000 nM | – | – | < 500 nM | – | – | – |
| COc1ccc(-c2nc3c(N4CCN(Cc5cn(C)cn5)CC4)c(Br)cnc3[nH]2)cc1 [Example 168, 6-Bromo-2-(4-methoxyphenyl)-7-(4-((1-methyl-1H-imidazol-4-yl)methyl)piperazin-1-yl)-3H-imidazo[4,5-b]pyridine] | 2000 to 50000 nM | – | – | < 500 nM | – | – | – |
| COc1ccc(-c2nc3c(N4CCN(Cc5ccc(F)cc5)CC4)c(Br)cnc3[nH]2)cc1 [Example 147, 6-Bromo-7-(4-(4-fluorobenzyl)piperazin-1-yl)-2-(4-methoxyphenyl)-3H-imidazo[4,5-b]pyridine] | 2000 to 50000 nM | – | – | < 500 nM | – | – | – |
